Source: patent US20100298141A1, “SUBSTITUTED PYRIDINE N-OXIDE HERBICIDES” (E. I. DU PONT DE NEMOURS AND COMPANY, priority 2007, published 2010)

Legend:
pigweed = test: Test C pre-/postemergence test; type: in vivo, Amaranthus retroflexus; conditions: for Plant response rating (0 to 100), Pigweed: 250 g ai/ha
How it was run: (§1)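 Compounds in a non-phytotoxic solvent with surfactant applied preemergence to seeded pots and, at the same time, postemergence to plants 2–18 cm tall (1- to 4-leaf stage). Paddy tests: pots flooded to 3 cm, compound applied into the water, depth held throughout.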

Goosegrass = test: Test C pre-/postemergence test; type: in vivo, Eleusin indica; conditions: for Plant response rating (0 to 100), Goosegrass: 250 g ai/ha
How it was run: as §1

barnyardgrass = test: Test C flooded paddy test; type: in vivo, Echinochloa crus-galli; conditions: Flood
How it was run: (§2)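 Pots were flooded to 3 cm above the soil surface at treatment, compound applied directly to the paddy water, and that depth held throughout. Plants were kept in a greenhouse for 13 to 15 days, then visually rated against untreated controls.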

bermudagrass = test: Test C pre-/postemergence test; type: in vivo, Cynodon dactylon; conditions: for Plant response rating (0 to 100), Bermudagrass: 250 g ai/ha
How it was run: as §1

wheat [1] = test: Test A pre-/postemergence greenhouse test; type: in vivo, Triticum aestivum; conditions: for Wheat plant response rating: 0 to 100 scale; for Plant response rating, Wheat: 0 to 100 scale where 0 is no effect and 100 is complete control
How it was run: (§3)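 Pots of loam–sand soil sown with the test species are sprayed preemergence on the soil surface; emerged seedlings (1–2 leaves, 2–10 cm) are sprayed postemergence at the same time. The vehicle is a non-phytotoxic solvent mixture with surfactant. Injury is scored visually after ~10 d in greenhouse.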

[2] = system: common (oilseed) sunflower; test: Test C pre-/postemergence test; type: in vivo, Helianthus annuus; conditions: for Plant response rating (0 to 100), Sunflower: Preemergence, 250 g ai/ha; for Sunflower plant response rating: preemergence, scale 0 (no effect) to 100 (complete control)
How it was run: as §1

soybean = test: Test C pre-/postemergence test; type: in vivo, Glycine max; conditions: for Plant response rating (0 to 100), Soybean: 250 g ai/ha
How it was run: as §1

yellow nutsedge = test: Test C pre-/postemergence test; type: in vivo, Cyperus esculentus; conditions: for Plant response rating (0 to 100), Nutsedge, Yellow: 250 g ai/ha
How it was run: as §1

morningglory [3] = test: Test A pre-/postemergence greenhouse test; type: in vivo, Ipomoea spp.; conditions: for Morningglory plant response rating: 0 to 100 scale; for Plant response rating, Morningglory: 0 to 100 scale where 0 is no effect and 100 is complete control
How it was run: as §3

catchweed bedstraw = test: Test C pre-/postemergence test; type: in vivo, Galium aparine; conditions: for Plant response rating (0 to 100), Galium: 250 g ai/ha
How it was run: as §1

corn = test: Test A pre-/postemergence greenhouse test; type: in vivo, Zea mays; conditions: for Corn plant response rating: 0 to 100 scale; for Plant response rating, Corn: 0 to 100 scale where 0 is no effect and 100 is complete control
How it was run: as §3

giant foxtail = test: Test A pre-/postemergence greenhouse test; type: in vivo, Setaria faberi; conditions: for Foxtail, Giant plant response rating: 0 to 100 scale; for Plant response rating, Foxtail, Giant: 0 to 100 scale where 0 is no effect and 100 is complete control
How it was run: as §3

morningglory [4] = test: Test C pre-/postemergence test; type: in vivo, Ipomoea coccinea; conditions: for Plant response rating (0 to 100), Morningglory: 250 g ai/ha
How it was run: as §1

wheat [5] = test: Test C pre-/postemergence test; type: in vivo, Triticum aestivum; conditions: for Wheat plant response rating: preemergence, scale 0 (no effect) to 100 (complete control); for Plant response rating (0 to 100), Wheat: Preemergence, 250 g ai/ha
How it was run: as §1

umbrella sedge = test: Test C flooded paddy test; type: in vivo, Cyperus difformis; conditions: Flood
How it was run: as §2

crabgrass = test: Test A pre-/postemergence greenhouse test; type: in vivo, Digitaria sanguinalis; conditions: for Crabgrass, Large plant response rating: 0 to 100 scale; for Plant response rating, Crabgrass, Large: 0 to 100 scale where 0 is no effect and 100 is complete control
How it was run: as §3

Italian ryegrass = test: Test C pre-/postemergence test; type: in vivo, Lolium multiflorum; conditions: for Plant response rating (0 to 100), Ryegrass, Italian: 250 g ai/ha
How it was run: as §1

[6] = 31 g ai/ha, Preemergence, scale 0 to 100
[7] = preemergence, 125 g ai/ha, scale 0 (no effect) to 100 (complete control)
[8] = 31 g ai/ha, scale 0 to 100 (0 no effect, 100 complete control)
[9] = 62 g ai/ha, scale 0 to 100, 0 no effect, 100 complete control, 13 to 15 days
[10] = 125 g ai/ha, scale 0 to 100, 0 no effect, 100 complete control, 13 to 15 days
[11] = 250 g ai/ha, scale 0 to 100 (0 no effect, 100 complete control)
[12] = Postemergence, 125 g ai/ha, 0 is no effect, 100 is complete control
[13] = Postemergence, 500 g ai/ha, 0 is no effect, 100 is complete control
[14] = Preemergence, 125 g ai/ha, 0 no effect, 100 complete control
[15] = 62 g ai/ha, preemergence, scale 0 (no effect) to 100 (complete control)

SMILES: Cn1nc(C(F)(F)F)c(CS(=O)(=O)c2cccc[n+]2[O-])c1Cl [Compound 9]
- Pigweed plant response rating (pigweed; [6]): 100
- Plant response rating (0 to 100), Pigweed (pigweed; Preemergence): 100
- Pigweed plant response rating (pigweed; [7]): 100
- Goosegrass plant response rating (Goosegrass; [6]): 100
- Plant response rating (0 to 100), Goosegrass (Goosegrass; Preemergence): 100
- Goosegrass plant response rating (Goosegrass; [7]): 100
- Plant response rating, Barnyardgrass (barnyardgrass; [8]): 0
- Plant response rating, Barnyardgrass (barnyardgrass; [9]): 60
- Plant response rating, Barnyardgrass (barnyardgrass; [10]): 85
- Plant response rating, Barnyardgrass (barnyardgrass; [11]): 90
- Bermudagrass plant response rating (bermudagrass; [6]): 98
- Plant response rating (0 to 100), Bermudagrass (bermudagrass; Preemergence): 100
- Bermudagrass plant response rating (bermudagrass; [7]): 100
- Wheat plant response rating (wheat [1]; [12]): 40
- Wheat plant response rating (wheat [1]; [13]): 60
- Wheat plant response rating (wheat [1]; [14]): 50
- Plant response rating, Wheat (wheat [1]; Preemergence, 500 g ai/ha): 70
- Plant response rating (0 to 100), Sunflower [2]: 70
- Sunflower plant response rating ([2]; 125 g ai/ha): 5
- Soybean plant response rating (soybean; [6]): 10
- Plant response rating (0 to 100), Soybean (soybean; Preemergence): 45
- Soybean plant response rating (soybean; [7]): 40
- Nutsedge, Yellow plant response rating (yellow nutsedge; [6]): 40
- Plant response rating (0 to 100), Nutsedge, Yellow (yellow nutsedge; Preemergence): 100
- Nutsedge, Yellow plant response rating (yellow nutsedge; [7]): 100
- Morningglory plant response rating (morningglory [3]; [12]): 20
- Morningglory plant response rating (morningglory [3]; [13]): 70
- Morningglory plant response rating (morningglory [3]; [14]): 40
- Plant response rating, Morningglory (morningglory [3]; Preemergence, 500 g ai/ha): 70
- Galium plant response rating (catchweed bedstraw; [6]): 0
- Galium plant response rating (catchweed bedstraw; [15]): 100
- Plant response rating (0 to 100), Galium (catchweed bedstraw; Preemergence): 100
- Galium plant response rating (catchweed bedstraw; [7]): 100
- Corn plant response rating (corn; [12]): 20
- Corn plant response rating (corn; [13]): 60
- Corn plant response rating (corn; [14]): 40
- Plant response rating, Corn (corn; Preemergence, 500 g ai/ha): 60
- Foxtail, Giant plant response rating (giant foxtail; [12]): 90
- Foxtail, Giant plant response rating (giant foxtail; [13]): 90
- Foxtail, Giant plant response rating (giant foxtail; [14]): 100
- Plant response rating, Foxtail, Giant (giant foxtail; Preemergence, 500 g ai/ha): 100
- Morningglory plant response rating (morningglory [4]; [6]): 0
- Plant response rating (0 to 100), Morningglory (morningglory [4]; Preemergence): 100
- Morningglory plant response rating (morningglory [4]; [7]): 90
- Wheat plant response rating (wheat [5]; 62 g ai/ha): 30
- Plant response rating (0 to 100), Wheat (wheat [5]): 70
- Wheat plant response rating (wheat [5]; 125 g ai/ha): 45
- Plant response rating, Sedge, Umbrella (umbrella sedge; [8]): 0
- Plant response rating, Sedge, Umbrella (umbrella sedge; [9]): 85
- Plant response rating, Sedge, Umbrella (umbrella sedge; [10]): 90
- Plant response rating, Sedge, Umbrella (umbrella sedge; [11]): 100
- Crabgrass, Large plant response rating (crabgrass; [12]): 80
- Crabgrass, Large plant response rating (crabgrass; [13]): 90
- Crabgrass, Large plant response rating (crabgrass; [14]): 100
- Plant response rating, Crabgrass, Large (crabgrass; Preemergence, 500 g ai/ha): 100
- Ryegrass, Italian plant response rating (Italian ryegrass; [6]): 0
- Ryegrass, Italian plant response rating (Italian ryegrass; [15]): 50
- Plant response rating (0 to 100), Ryegrass, Italian (Italian ryegrass; Preemergence): 65
- Ryegrass, Italian plant response rating (Italian ryegrass; [7]): 65

SMILES: CC(c1c(C(F)(F)F)nn(C)c1Cl)S(=O)(=O)c1cccc[n+]1[O-] (centres unmarked) [Compound 10]
- Pigweed plant response rating (pigweed; [6]): 70
- Pigweed plant response rating (pigweed; [15]): 100
- Plant response rating (0 to 100), Pigweed (pigweed; Preemergence): 100
- Pigweed plant response rating (pigweed; [7]): 100
- Goosegrass plant response rating (Goosegrass; [6]): 100
- Goosegrass plant response rating (Goosegrass; [15]): 100
- Plant response rating (0 to 100), Goosegrass (Goosegrass; Preemergence): 100
- Goosegrass plant response rating (Goosegrass; [7]): 100
- Plant response rating, Barnyardgrass (barnyardgrass; [8]): 0
- Plant response rating, Barnyardgrass (barnyardgrass; [9]): 30
- Plant response rating, Barnyardgrass (barnyardgrass; [10]): 75
- Plant response rating, Barnyardgrass (barnyardgrass; [11]): 85
- Bermudagrass plant response rating (bermudagrass; [6]): 95
- Bermudagrass plant response rating (bermudagrass; [15]): 100
- Plant response rating (0 to 100), Bermudagrass (bermudagrass; Preemergence): 100
- Bermudagrass plant response rating (bermudagrass; [7]): 100
- Wheat plant response rating (wheat [1]; [12]): 50
- Wheat plant response rating (wheat [1]; [13]): 70
- Wheat plant response rating (wheat [1]; [14]): 60
- Plant response rating, Wheat (wheat [1]; Preemergence, 500 g ai/ha): 80
- Sunflower plant response rating ([2]; 62 g ai/ha): 0
- Plant response rating (0 to 100), Sunflower [2]: 100
- Sunflower plant response rating ([2]; 125 g ai/ha): 85
- Soybean plant response rating (soybean; [6]): 0
- Soybean plant response rating (soybean; [15]): 0
- Plant response rating (0 to 100), Soybean (soybean; Preemergence): 10
- Soybean plant response rating (soybean; [7]): 5
- Nutsedge, Yellow plant response rating (yellow nutsedge; [6]): 60
- Nutsedge, Yellow plant response rating (yellow nutsedge; [15]): 98
- Plant response rating (0 to 100), Nutsedge, Yellow (yellow nutsedge; Preemergence): 100
- Nutsedge, Yellow plant response rating (yellow nutsedge; [7]): 98
- Morningglory plant response rating (morningglory [3]; [12]): 20
- Morningglory plant response rating (morningglory [3]; [13]): 90
- Morningglory plant response rating (morningglory [3]; [14]): 80
- Plant response rating, Morningglory (morningglory [3]; Preemergence, 500 g ai/ha): 90
- Galium plant response rating (catchweed bedstraw; [6]): 0
- Galium plant response rating (catchweed bedstraw; [15]): 50
- Plant response rating (0 to 100), Galium (catchweed bedstraw; Preemergence): 100
- Galium plant response rating (catchweed bedstraw; [7]): 100
- Corn plant response rating (corn; [12]): 40
- Corn plant response rating (corn; [13]): 60
- Corn plant response rating (corn; [14]): 0
- Plant response rating, Corn (corn; Preemergence, 500 g ai/ha): 50
- Foxtail, Giant plant response rating (giant foxtail; [12]): 80
- Foxtail, Giant plant response rating (giant foxtail; [13]): 90
- Foxtail, Giant plant response rating (giant foxtail; [14]): 100
- Plant response rating, Foxtail, Giant (giant foxtail; Preemergence, 500 g ai/ha): 100
- Morningglory plant response rating (morningglory [4]; [6]): 85
- Morningglory plant response rating (morningglory [4]; [15]): 100
- Plant response rating (0 to 100), Morningglory (morningglory [4]; Preemergence): 100
- Morningglory plant response rating (morningglory [4]; [7]): 100
- Wheat plant response rating (wheat [5]; 62 g ai/ha): 35
- Plant response rating (0 to 100), Wheat (wheat [5]): 80
- Wheat plant response rating (wheat [5]; 125 g ai/ha): 60
- Plant response rating, Sedge, Umbrella (umbrella sedge; [8]): 40
- Plant response rating, Sedge, Umbrella (umbrella sedge; [9]): 80
- Plant response rating, Sedge, Umbrella (umbrella sedge; [10]): 90
- Plant response rating, Sedge, Umbrella (umbrella sedge; [11]): 90
- Crabgrass, Large plant response rating (crabgrass; [12]): 80
- Crabgrass, Large plant response rating (crabgrass; [13]): 90
- Crabgrass, Large plant response rating (crabgrass; [14]): 90
- Plant response rating, Crabgrass, Large (crabgrass; Preemergence, 500 g ai/ha): 100
- Ryegrass, Italian plant response rating (Italian ryegrass; [6]): 20
- Ryegrass, Italian plant response rating (Italian ryegrass; [15]): 40
- Plant response rating (0 to 100), Ryegrass, Italian (Italian ryegrass; Preemergence): 98
- Ryegrass, Italian plant response rating (Italian ryegrass; [7]): 90
